{"source": "paper PMC6176332", "about": "“Studies on the Interaction between Three Small Flavonoid Molecules and Bovine Lactoferrin” (BioMed Research International, 2018)", "biological_target": "T1, bovine lactoferrin (BLF) (Bos taurus, UniProt P24627)", "T1 construct": "gene LTF", "T1 sequence (P24627 20-708)": "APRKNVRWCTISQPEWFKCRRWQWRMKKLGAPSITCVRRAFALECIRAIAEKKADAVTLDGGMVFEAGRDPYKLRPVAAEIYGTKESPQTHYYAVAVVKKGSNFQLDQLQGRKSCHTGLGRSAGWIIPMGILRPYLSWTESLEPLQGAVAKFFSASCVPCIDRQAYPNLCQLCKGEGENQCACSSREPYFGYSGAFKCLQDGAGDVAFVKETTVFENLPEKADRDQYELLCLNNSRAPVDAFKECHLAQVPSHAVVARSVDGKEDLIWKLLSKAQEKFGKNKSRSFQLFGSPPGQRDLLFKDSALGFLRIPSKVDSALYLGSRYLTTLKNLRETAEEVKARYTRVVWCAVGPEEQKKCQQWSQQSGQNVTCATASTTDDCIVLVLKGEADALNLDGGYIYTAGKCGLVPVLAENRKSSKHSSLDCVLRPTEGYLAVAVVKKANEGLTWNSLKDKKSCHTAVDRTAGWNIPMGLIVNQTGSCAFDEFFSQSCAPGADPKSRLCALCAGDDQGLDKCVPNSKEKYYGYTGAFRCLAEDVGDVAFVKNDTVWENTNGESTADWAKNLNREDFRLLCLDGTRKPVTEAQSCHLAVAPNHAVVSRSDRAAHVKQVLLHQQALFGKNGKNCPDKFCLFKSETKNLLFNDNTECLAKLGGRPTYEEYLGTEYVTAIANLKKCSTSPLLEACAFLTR", "test": "intrinsic fluorescence quenching (excitation […] nm), double-log plot", "assay_type": "binding", "conditions": "0.05 M phosphate buffer, pH 7.4, 300 K, about 1% ethanol; n = 1.076; in 1/M", "data": [{"smiles": "O=C1C[C@@H](c2ccc(O)cc2)Oc2cc(O)cc(O)c21", "note": "[Naringenin]", "values": [{"measurement": "Ka (×10^4M^-1)", "result": "3.05 ×10^4"}]}]}
